Consider seven compounds from patent publication US9169217B2, “Arylalkyl esters of 4-amino-6-(substituted phenyl)-picolinates and 6-amino-2-(substituted phenyl)-pyrimidinecarboxylates and their use as selective herbicides for crops” (Dow AgroSciences LLC, priority 2011, dated 2015).

Common to all, as to format: in vivo
Test [1] concerns Scirpus juncoides ROXB. (Japanese bulrush). Put plainly: In-water applied herbicidal activity in transplanted paddy rice (Example 17). The following applies: for GR50 / GR80 / GR90: SCPJU, in-water applied, probit analysis; for GR50: 50% growth reduction; for GR80: 80% growth reduction; for GR90: 90% growth reduction. An outline of the steps: (§1)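 Ester forms of test compounds, in acetone diluted with aqueous Agri-dex (final 1.25% v/v crop oil concentrate), were injected into the flood water of paddy pots holding weeds or rice at the 2nd–3rd leaf stage in mud (pH ~7.3–7.8). Visual injury versus untreated plants was scored 0–100% after 3 weeks in greenhouse (~29/26 °C). GR50/GR80 were derived by probit analysis.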

Test [2] deals with Fimbristylis miliacea (L.) VAHL (globe fringerush). The test is described as above. The following applies: for Visual Injury (%) FIMMI: rice cropping systems, in-water applied (paddy), 35 g ae/ha, 21 DAA, may represent multiple trials; for GR50 / GR80 / GR90: FIMMI, in-water applied, probit analysis; for GR50: 50% growth reduction; for GR80: 80% growth reduction; for GR90: 90% growth reduction. An outline of the steps: as §1

Test [3] deals with Echinochloa colonum (L.) LINK (junglerice). Put plainly: Postemergence foliar-applied herbicidal activity in direct seeded rice (Example 16). The following applies: for GR50 / GR80 / GR90: ECHCO, probit analysis; for GR50: 50% growth reduction; for GR80: 80% growth reduction; for GR90: 90% growth reduction; for pest or weed control at 8.75 g/ha: Echinochloa colona, post-emergence, 504 h, rice cropping systems, 8.75 g ae/ha, 21 DAA, may represent multiple trials, read-out: Visual Injury (%) ECHCO. The procedure, abridged:
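Greenhouse plants at 2nd–3rd true leaf stage (10–17 d, ~29/26 °C, 14-h photoperiod) sprayed postemergence with ester forms in acetone–DMSO plus 1.25% crop oil concentrate at 187 L/ha. Visual injury scored 0–100% versus untreated plants after 3 weeks; GR50/GR80 derived by probit analysis.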

Where two headings read alike, the source gives them in different places. Where only a bound is given, the exact number is not on record here.

For `COC(=O)c1nc(-c2ccc(Cl)c(OC)c2F)nc(N)c1OC` [Compound F, methyl 6-amino-2-(4-chloro-2-fluoro-3-methoxyphenyl)-5-methoxypyrimidine-4-carboxylate, reference compound], the pest or weed control at 35 g/ha in test [1] (Schoenoplectiella juncoides, 504 h, rice cropping systems, in-water applied (paddy), 35 g ae/ha, 21 DAA, may represent multiple trials, read-out: Visual Injury (%) SCPJU) came out at 50%.
`COC(=O)c1nc(-c2ccc(Cl)c(OC)c2F)cc(N)c1Cl` [Compound G, methyl 4-amino-3-chloro-6-(4-chloro-2-fluoro-3-methoxyphenyl)picolinate, reference compound]: the “Visual Injury (%) FIMMI” value in test [2] is on record as 61%.
As to `COC(=O)c1nc(-c2ccc(Cl)c(OC)c2F)c(F)c(N)c1Cl` [E, methyl 4-amino-3-chloro-6-(4-chloro-2-fluoro-3-methoxyphenyl)-5-fluoropicolinate, reference compound], in test [3], the GR50 is reported as <4.38 g ae/ha, the GR80 worked out at 14.6 g ae/ha and the GR90 was found to be 55.6 g ae/ha. Also, in test [2], the GR50 is listed as 14.4 g ae/ha, the GR80 is recorded as 21.7 g ae/ha and the GR90 amounted to 26.8 g ae/ha. In test [1], this compound yielded a GR50 of 9.6 g ae/ha, a GR80 of 20.0 g ae/ha and a GR90 of 29.5 g ae/ha. Besides, the pest or weed control at 17.5 g/ha in test [1] (Schoenoplectiella juncoides, 504 h, rice cropping systems, in-water applied (paddy), 17.5 g ae/ha, 21 DAA, may represent multiple trials, read-out: Visual Injury (%) SCPJU) stood at 75%.
Take `COC(=O)c1nc(-c2ccc(C3CC3)cc2)c(F)c(N)c1Cl` [Compound B, methyl 4-amino-3-chloro-6-(4-cyclopropylphenyl)-5-fluoropicolinate]: in test [3], the pest or weed control at 8.75 g/ha amounted to 50%.
Turning to `Nc1c(F)c(-c2ccc(C3CC3)cc2)nc(C(=O)OCc2ccccc2)c1Cl` [Compound 42, benzyl 4-amino-3-chloro-6-(4-cyclopropylphenyl)-5-fluoropicolinate], the pest or weed control at 8.75 g/ha in test [3] was determined as 85%.
As for `COc1c(Cl)ccc(-c2cc(N)c(Cl)c(C(=O)OCc3ccccc3)n2)c1F` [Compound 39], the “Visual Injury (%) FIMMI” value in test [2] is 100%.
On to `COc1c(Cl)ccc(-c2nc(C(=O)OCc3ccccc3)c(Cl)c(N)c2F)c1F` [Compound 1, benzyl 4-amino-3-chloro-6-(4-chloro-2-fluoro-3-methoxyphenyl)-5-fluoropicolinate], for which, in test [3], the GR50 came out at 2.4 g ae/ha, the GR80 was 7.8 g ae/ha and the GR90 was 14.4 g ae/ha. In test [2], the GR50 is recorded as <17.5 g ae/ha, the GR80 is <17.5 g ae/ha and the GR90 is <17.5 g ae/ha. In test [1], the GR50 is <8.75 g ae/ha, the GR80 was 4.4 g ae/ha and the GR90 is 10.8 g ae/ha. Also, in test [1] (Schoenoplectiella juncoides, 504 h, read-out: Visual Injury (%) SCPJU), the pest or weed control at 17.5 g/ha worked out at 99%.
